Assay results taken from patent US8623661B2, “Iron chelating agent, method for producing same, method for determining amount of iron ions and method for trapping iron ions” (National University Corporation Asahikawa Medical College, priority 2008, dated 2014).

Tests used:
Type in all cases: binding
[1] = tested on: iron citrate complex ammonium salt (FAC); assay: Evaluation C: chelating ability in MOPS/acetonitrile solvent, FAC solution
Experimental: (§1) Evaluation was carried out by the following evaluation method C as to whether or not the iron chelating agent according to Examples 1 to 3 had chelating ability with iron in 3-morpholinopropanesulfonic acid (C7H15NO4S;MOPS) and acetonitrile solution as solvents used in high performance liquid chromatography (HPLC).
(§2) 2.09 g of morpholinopropanesulfonic acid (C7H15NO4S; FW=209.26, Code 341-01801, Lot PX013, manufactured by Dojindo/Wako Corporation) was added to a 100 mL Erlenmeyer flask, 80 mL of ultrapure water (pure water produced by an ultrapure water production system manufactured by Millipore Corporation (Milli-Q); “Milli-Q water”) was added thereto and dissolved [pH 4.15 (24.4° C.)]. To this solution, 1N sodium hydroxide solution (1 mol/1 sodium hydroxide solution, Code 192-02175, Lot SEP7274, manufactured by Wako Pure Chemicals Industries) was added in 100 μl portions, the pH was adjusted to 7.0 and further Milli-Q water was made up to 100 mL in a measuring cylinder, whereby 100 mL of MOPS solution (pH 6.99) was prepared.
(§3) An iron chelating agent solution having an iron chelating agent concentration of 50 mM was prepared with respect to the iron chelating agent according to Examples 1 to 3, in the same manner as the preparation method of the iron chelating solution in evaluation A of the iron chelating agent.
(§4) Further, 100 mM of MOPS solution (pH6.99) prepared by the preparation method of the MOPS solution was used.
(§5) Furthermore, a stock solution of acetonitrile (C2H3N, FW=41.05, Code 347-06641, Lot WPI96, manufactured by Dojindo/Wako corporation) was used.
(§6) 13.8 mL of Milli-Q water was taken in a 50 mL conical tube, 1.2 mL of each of the iron chelating agent solutions (Fe-Ser•Na (50 mM), Fe-His•Na (50 mM), Fe-Glu•Na (50 mM)) according to the iron chelating agents of Examples 1 to 3 was added, 1.0 mL of 100 mM MOPS solution was added thereto, and a further 4.0 mL of acetonitrile solution was added to produce an iron chelating solution using MOPS. The iron chelating agent solutions using MOPS and iron chelating agent according to Examples 1 to 3 were defined respectively as Fe-Ser•Na (MOPS solution)” (iron chelating agent according to
(§7) Example 1), “Fe-His•Na (MOPS solution)” (iron chelating agent according to Example 2), and “Fe-Glu•Na(MOPS solution)” (iron chelating agent according to Example 3).
An iron citrate complex ammonium salt solution (FAC solution (20 mM)) having a concentration of iron ions of 20 mM and an iron citrate complex ammonium salt solution (FAC solution (2 mM)) having a concentration of iron ions of 2 mM were prepared, in the same manner as the preparation method of the iron citrate complex ammonium solution in evaluation A of the iron chelating agent.
FAC solution (20 mM) was added to and mixed with each of the iron chelating agent solutions [Fe-Ser•Na (MOPS solution), Fe-His•Na (MOPS solution), Fe-Glu•Na (MOPS solution)] using MOPS.

[2] = tested on: iron nitrilotriacetate complex (Fe-NTA); assay: Evaluation C: chelating ability in MOPS/acetonitrile solvent, Fe-NTA solution
Experimental: as §1, §2, §3, §4, §5, §6, §7
Further, iron nitrilotriacetate complex solution (“Fe-NTA solution (20 mM)”) having a concentration of iron ions of 20 mM and iron nitrilotriacetate complex solution (“Fe-NTA solution (2 mM)”) having a concentration of iron ions of 2 mM were prepared, in the same manner as the preparation method of iron nitrilotriacetate complex solution in evaluation B of the iron chelating agent.
Further, Fe-NTA solution (20 mM) was added to and mixed with each of the iron chelating agent solutions [Fe-Ser•Na (MOPS solution), Fe-His•Na (MOPS solution), Fe-Glu•Na (MOPS solution)] using MOPS. […] Further, Fe-NTA solution (2 mM) was added and mixed thereto as described above.

[3] = target: T1, transferrin iron complex (holo-Transferrin (hTf), human) (Homo sapiens, UniProt P02787); assay: Evaluation D: capture of iron ions from transferrin iron complex; conditions: for hTf residual ratio (%): relative to non-treated holo-Transferrin, 24 hours with 5 mM chelator solution; for Absorbance (466 nm): transferrin fraction after 24 hours at room temperature with 5 mM chelator solution and 50 μM transferrin iron complex solution, ultrafiltration
T1 construct: purchased Sigma Corporation T0665-50MG
T1 sequence (P02787 20-698, one chain of several): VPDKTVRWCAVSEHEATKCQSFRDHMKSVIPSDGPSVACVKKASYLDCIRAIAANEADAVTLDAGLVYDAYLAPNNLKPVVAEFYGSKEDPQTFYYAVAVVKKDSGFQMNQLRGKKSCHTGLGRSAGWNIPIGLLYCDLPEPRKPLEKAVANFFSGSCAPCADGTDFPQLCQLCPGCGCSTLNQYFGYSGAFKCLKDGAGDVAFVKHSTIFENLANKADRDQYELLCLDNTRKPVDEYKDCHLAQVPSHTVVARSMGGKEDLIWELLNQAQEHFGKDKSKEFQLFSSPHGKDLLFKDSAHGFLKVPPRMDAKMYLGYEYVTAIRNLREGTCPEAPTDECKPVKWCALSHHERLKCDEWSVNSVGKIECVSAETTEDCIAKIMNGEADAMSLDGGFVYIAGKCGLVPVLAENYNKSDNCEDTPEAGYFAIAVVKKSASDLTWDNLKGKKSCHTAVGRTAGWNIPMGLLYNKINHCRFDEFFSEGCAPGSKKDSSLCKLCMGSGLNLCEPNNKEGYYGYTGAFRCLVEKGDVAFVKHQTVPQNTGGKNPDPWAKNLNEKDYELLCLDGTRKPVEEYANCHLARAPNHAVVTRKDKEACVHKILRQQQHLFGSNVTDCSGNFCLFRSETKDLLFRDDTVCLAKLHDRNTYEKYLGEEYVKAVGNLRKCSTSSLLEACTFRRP
Experimental: Evaluation was carried out by the following evaluation method D with respect to properties whether iron ions were captured from the transferrin iron complex (transferrin iron complex in which transferrin is chelated to iron ions) by the iron chelating agent according to Examples 1 to 2.
The iron chelating agent according to Example 1 was dissolved in 1×D-PBS (pH 7.2) to prepare an iron chelating agent solution (“Fe-Ser•Na (5 mM)”) having an iron chelating agent concentration of 5 mM, in the same manner as the preparation method of the iron chelating agent in evaluation A of the iron chelating agent.
Further, as described above, the iron chelating agent according to Example 2 was dissolved in 1×D-PBS (pH 7.2) to prepare an iron chelating agent solution (“Fe-His•Na (5 mM)”) having an iron chelating agent concentration of 5 mM.
Further, 800 mM HEDTA solution as the iron chelating agent according to Comparative Example 3 was prepared as described above. 13.76 g of crystals were taken in a 50 mL conical tube, 25 mL of Milli-Q water was added and dissolution performed, and then adjustment to pH 7.0 was performed using concentrated hydrochloric acid (35 to 37%) and the total amount was adjusted to 50 mL using Milli-Q water (HEDTA solution (800 mM)). HEDTA solution (“HEDTA solution (5 mM)”) having a concentration of HEDTA of 5 mM was prepared using 1×D-PBS (pH 7.2).
Further, 800 mM solution (pH 7.0) was prepared by using NTA2Na and NTA3Na as iron chelating agents according to Comparative Example 1 as described above. 9.4 g of NTA2Na was dissolved in Milli-Q water and the total volume was made up to 50 mL (referred to as “NTA2Na solution (800 mM)” in some cases). Meanwhile, 11.0 g of NTA3Na was dissolved in Milli-Q water and the total volume was made up to 50 mL (“NTA3Na solution (800 mM)”). NTA2Na solution (800 mM) (pH 6.3) and NTA3Na solution (800 mM) (pH 11.3) were mixed to produce 800 mM of NTA solution with pH 7.0. NTA solution (“NTA solution (5 mM)”) having a concentration of NTA of 5 mM was prepared by using 1×D-PBS (pH 7.2).
A commercially available transferrin iron complex (holo-Transferrin (hTf), human, Code T0665-50MG, Lot 095K1633, manufactured by Sigma Corporation) was dissolved in 1×D-PBS (pH 7.2) to prepare a transferrin iron complex solution having a concentration of iron ions (iron ions which are transferrin-bound iron) of 50 μM.
50 μl of 50 μM transferrin iron complex solution was taken in a 1.5 mL sample tube, 50 μl of each of iron chelating agent solutions (Fe-Ser•Na (5 mM), Fe-His•Na (5 mM), NTA solution (5 mM), HEDTA solution (5 mM)) was added thereto and left at room temperature under light shielding for 24 hours. 50 μl of various reaction liquids was taken in a centrifugal ultrafiltration unit (trade name “Amicon Ultra-4 Ultracel-30k” UFC8030, manufactured by Millipore Corporation), and 450 μl of 1×D-PBS (pH 7.2) was added thereto, centrifugation was carried out at 3,500 rpm and 20° C. for 30 minutes, and transferrin and each low molecular chelating agents were separated (first time). After centrifugation, the filtrate was discarded. 450 μl of 1×D-PBS (pH 7.2) was added again to the solution (about 50 μl) containing transferrin concentrated in a unit and centrifugation was carried out with the same conditions (second time). A solution containing transferrin concentrated in a unit was recovered after the second time of centrifugation and the absorbance at the wavelength of 466 nm was measured using a spectrophotometer (trade name “Spectrophotometer DU 640”, manufactured by Beckman Coulter).

[4] = FAC solution (2 mM) added to chelating agent MOPS solution (MOPS, acetonitrile)
[5] = FAC solution (20 mM) added to chelating agent MOPS solution (MOPS, acetonitrile)
[6] = Fe-NTA solution (2 mM) added to chelating agent MOPS solution (MOPS, acetonitrile)
[7] = Fe-NTA solution (20 mM) added to chelating agent MOPS solution (MOPS, acetonitrile)

Compound | colour of the solution after mixing [1, 4] | colour of the solution after mixing [1, 5] | colour of the solution after mixing [2, 6] | colour of the solution after mixing [2, 7] | hTf residual ratio (%) [3] [%] | Absorbance (466 nm) [3]
NC(=O)CCC(NCc1ccccc1O)C(=O)O (centres unmarked) [Example 3, o-[(1-carboxy-2-carbamoylmethylethyl)-amino-methyl]-phenol] | dark brown-colored | dark brown-colored | dark brown-colored | dark brown-colored |  | 
N-(2-hydroxyethyl)-ethylenediamine triacetic acid [Comparative Example 3, reference compound] |  |  |  |  | 69.59 | 0.0515
O=C(O)C(Cc1c[nH]cn1)NCc1ccccc1O (centres unmarked) [Example 2, o-[(1-carboxy-2-(1H-imidazol-4-yl)ethyl)-amino-methyl]-phenol] | dark brown-colored | dark brown-colored | dark brown-colored | dark brown-colored | 83.78 | 0.0620
O=C(O)CN(CC(=O)O)CC(=O)O [Comparative Example 1, nitrilotriacetic acid, reference compound] |  |  |  |  | 79.59 | 0.0589
